Values of other authors as cited in patent US5217965A, “Stabilized solid dosage forms of choline metal carboxymethylcellulose salicylate compositions” (Euroceltique, S.A., priority 1991, dated 1993).

Conditions: background

Q: For `C[N+](C)(C)CCO.O=C([O-])c1ccccc1O` [Choline salicylate], which Hygroscopicity is on record?
A: highly hygroscopic
